Results on 21 molecules are retold here after patent US6403357B1, “Thermostable D-hydantoinase and the application thereof” (National Science Council, priority 2000, dated 2002).

Read-outs that look alike come from different tables or passages of the source.

What all share (assay type): biochemical, Bacillus circulans
For data set [1], the system named is D-hydantoinase. Briefly: Substrate selection of D-hydantoinase. The settings on record: substrate 10 mM; for Conversion to the corresponding N-carbamoyl amino acid / Specific activity: 50° C., 10 min; for Relative activity: percentage based on activity for dihydrouracil. The procedure:
10 mM Dihydrouracil, hydantoin, D,L-p-HPH, 5-[2-(methylthio)ethyl]hydantoin, and D,L-homophenylalanyl-hydantoin were used as substrates, respectively. The vector pQE-bcidht in E. coli NovaBlue, crude extracts thereof or the purified D-hydantoinase of the present invention was reacted with each substrate at 50° C. for 10 min. Enzyme activity was then measured.

Data set [2] deals with D-hydantoinase. As to the kind of experiment: Effects of chelator on D-hydantoinase activity. The settings on record: chelator 10 μM, incubation for 10 hours. Here is the method: The vector pQE-bcidht in E. coli NovaBlue, crude extracts thereof or the purified D-hydantoinase of the present invention was mixed with hydrophilic chelator, EDTA, and hydrophobic chelator, 2,6-dipicolinic acid, at 10 μM concentration, respectively. The mixture was incubated for 0-12 hours, and the enzyme activity was measured.

Data set [3] has as its system D-hydantoinase. As to the kind of experiment: Effects of metal ions on D-hydantoinase activity.
Data set [4] has as its system D-hydantoinase. As to the kind of experiment: Effects of H2O2, NaCl and NH4Cl on D-hydantoinase activity. The settings on record: 10 min; for Effect on enzyme activity: concentration as high as 0.8 M, room temperature. The procedure:
The vector pQE-bcidht in E. coli NovaBlue, crude extracts thereof or the purified D-hydantoinase of the present invention was incubated at 25° C. for 10 min. Afterwards, the catalase was added to the solution to remove residual H2O2, and then the enzyme activity was measured. In addition, various concentrations of NaCl and NH4Cl were added to the solution containing D-hydantoinase. The solution was incubated at room temperature for 10 min, and the enzyme activity was measured.

In data set [5] the test system is D-hydantoinase. As to the kind of experiment: Reaction pH of D-hydantoinase. Conditions: 10 mM D,L-p-HPH, 50° C., 10 min. Here is the method: The substrate D,L-p-HPH was dissolved in various pH buffers at the final concentration of 10 mM. The vector pQE-bcidht in E. coli NovaBlue, crude extracts thereof or the purified D-hydantoinase of the present invention, were added to each buffer containing substrate, and incubated at 50° C. for 10 min. The specific activity of the enzyme was then measured.

Data set [6] concerns D-hydantoinase. As to the kind of experiment: Reaction temperature of D-hydantoinase. The settings on record: 500 μM Mn2+, 10 mM D,L-p-HPH, pH 8.0, 10 min. The procedure:
The vector pQE-bcidht in E. coli NovaBlue, crude extracts thereof or the purified D-hydantoinase of the present invention (containing 500 μM Mn^2+), was added to 10 mM substrate of D,L-p-HPH (dissolved in 50 mM Tris-HCl (pH 8.0)). The mixture was incubated at various temperature (30-90° C.) for 10 min. The specific activity of the enzyme was then measured.

For data set [7], the system named is D-hydantoinase. Briefly: Thermostability of D-hydantoinase. The settings on record: after 60 days incubation at 50° C. Here is the method:
The vector pQE-bcidht in E. coli NovaBlue, crude extracts thereof or the purified D-hydantoinase of the present invention (47 unit/mg; containing 500 μM Mn^2+), was incubated at 50° C. in a thermostat water bath. The specific activity of the enzyme was measured at various time intervals.

Data set [8] has as its system D-hydantoinase. Briefly: Conditions of converting D,L-p-HPH by D-hydantoinase. Conditions: enzyme pre-mixed with Mn2+ and incubated in an ice solution for 4 days. The procedure: The reaction pH of D-hydantoinase is between 5 and 10. […] The substrate solubility and enzyme activity can be elevated by grinding D,L-p-HPH to powder form, dissolving the powdered substrate in 50 mM Tris-HCl (pH 8.0), followed by stirring the solution at room temperature for 2 hours. In addition, A suitable amount of DMSO can also enhance the solubility of substrate D,L-p-HPH, and elevate the conversion efficiency from D,L-p-HPH to D-p-HPG by the D-hydantoinase of the present invention.

The mark [9] stands for this setting: ion 500 μM, 15 min at room temperature, 10 mM D,L-p-HPH in 50 mM Tris-HCl pH 8.0.
Where [10] appears, read: ion 500 μM, percentage based on activity without adding ions.

As for `O=C1NC(=O)C(CCc2ccccc2)N1` (racemic) [D,L-Homophenylalanyl-hydantoin, D,L-homophenylalanyl-hydantoin], in the data set on D-hydantoinase [1], the “Conversion to the corresponding N-carbamoyl amino acid” value (shortened to “Conversion”) is “capable of converting”, the Specific activity was 45.64 unit/mg and the Relative activity was determined as 84%.
The corresponding values for `O=C1NC(=O)C(c2ccc(O)cc2)N1` (racemic) [D,L-p-Hydroxyphenylhydantoin, D,L-p-hydroxyphenylhydantoin] are “capable of converting”, 47.43 unit/mg and 87%.
In the data set on D-hydantoinase [2], `O=C(O)c1cccc(C(=O)O)n1` [2,6-dipicolinic acid] had a Retained enzyme activity of 40%.
In the case of `CSCCC1NC(=O)NC1=O` (stereo not shown) [5-[2-(Methylthio)ethyl]-hydantoin, 5-[2-(methylthio)ethyl]hydantoin], in the data set with D-hydantoinase [1], the “Conversion” value was “capable of converting”, the Specific activity amounted to 21.48 unit/mg and the Relative activity is listed as 40%.
With `[Ca+2].[Cl-].[Cl-]` [CaCl2], the Specific activity with D-hydantoinase [3] (setting [9]) is on record as 2.53 unit/mg. For the same molecule, the Relative activity in the data set with D-hydantoinase [3] (setting [10]) is reported as 88%.
Take `[Cl-].[Cl-].[Co+2]` [CoCl2]: in the data set with D-hydantoinase [3], the “Effect on enzyme activity” value was “enhance the enzyme activity”; the “Increase of enzyme activity, times original activity” value (“Increase of enzyme activity” below) is recorded as 4.5 times; the Relative activity was 252%. In the data set on D-hydantoinase [3] (pH 8), this molecule showed a Specific activity of 7.25 unit/mg.
Consider `[Cl][Cu][Cl]` [CuCl2], for which, in the data set with D-hydantoinase [3] (ion 500 μM), the “Inhibition of D-hydantoinase activity” value stood at 22%. Further, the Specific activity with D-hydantoinase [3] (setting [9]) is reported as 2.26 unit/mg. In the data set on D-hydantoinase [3] (setting [10]), the Relative activity came out at 78%.
With `O=C1CCNC(=O)N1` [Dihydrouracil], in the data set with D-hydantoinase [1], the Specific activity came to 54.29 unit/mg and the Relative activity turned out to be 100%. In the data set on D-hydantoinase [1] (listed as dihydrouracil), this molecule displayed a Specific activity of 54 unit/mg.
Regarding `O=C(O)CN(CCN(CC(=O)O)CC(=O)O)CC(=O)O` [EDTA], the Retained enzyme activity in the data set with D-hydantoinase [2] worked out at 70%.
In turn, `[Cl][Fe]([Cl])[Cl]` [FeCl3] yielded a Specific activity in the data set with D-hydantoinase [3] (setting [9]) of 2.52 unit/mg. Moreover, the Relative activity in the data set on D-hydantoinase [3] (setting [10]) is reported as 87.5%.
The corresponding values for `O=S(=O)([O-])[O-].[Fe+2]` [FeSO2] are 2.52 unit/mg and 87.5%.
On to `OO` [H2O2], for which the Retained enzyme activity in the data set on D-hydantoinase [4] (0.8 M H2O2, 25° C.) turned out to be 85%.
Take `O=C1CNC(=O)N1` [Hydantoin]: in the data set on D-hydantoinase [1], the “Conversion” value is “capable of converting”, the Specific activity was determined as 41.43 unit/mg and the Relative activity was determined as 76%.
As for `[Cl-].[Cl-].[Mg+2]` [MgCl2], in the data set on D-hydantoinase [3] (setting [9]), the Specific activity is recorded as 2.62 unit/mg. In addition, the Relative activity with D-hydantoinase [3] (setting [10]) amounted to 91%.
The matching figures for `O=S(=O)([O-])[O-].[Mg+2]` [MgSO4]: 2.69 unit/mg and 94%.
Turning to `[Cl][Mn][Cl]` [MnCl2], the “Increase of enzyme activity” value with D-hydantoinase [3] (500 μM Mn2+) came to 7.7 times. Moreover, the “Effect on enzyme activity” value in the data set on D-hydantoinase [3] (divalent metal ion added) is given as “enhance the enzyme activity”. This molecule also registered a Specific activity in the data set with D-hydantoinase [3] (setting [9]) of 22.25 unit/mg. Moreover, the Relative activity with D-hydantoinase [3] (setting [10]) worked out at 773%.
On to `Cl.N` [NH4Cl], for which, in the data set on D-hydantoinase [4], the “Effect on enzyme activity” value was “not affected”.
Same read-out and setting: next, `[Cl-].[Na+]` [NaCl]: “not affected”.
With `O=S(=O)([O-])[O-].[Ni+2]` [NiSO4], in the data set on D-hydantoinase [3] (100 μM Ni2+), the “Increase of enzyme activity” value is recorded as 1.3 times. In the data set on D-hydantoinase [3] (divalent metal ion added), the “Effect on enzyme activity” value was “enhance the enzyme activity”. Moreover, in the data set with D-hydantoinase [3] (setting [9]), the Specific activity was 4.00 unit/mg. In addition, the Relative activity with D-hydantoinase [3] (setting [10]) was 139%.
As to `O=S(=O)([O-])[O-].[Zn+2]` [ZnSO4], the “Inhibition of D-hydantoinase activity” value with D-hydantoinase [3] (ion 500 μM) came to 50%. The Specific activity in the data set on D-hydantoinase [3] (setting [9]) was 1.44 unit/mg. For the same molecule, the Relative activity in the data set on D-hydantoinase [3] (setting [10]) is 50%.

B1: D-hydantoinase: thermostable D-hydantoinase from Bacillus circulans, amino acid sequence SEQ ID NO:1, 461 amino acids, expressed in E. coli (protein)
chain: MKKWIRNGTVVTASDTYQADVLIDGEKVVAIGSDLQATDAEVIDATGYYLLPGGIDPHTHLDMPFGGTVTSDNFFTGTKAAAFGGTTSIVDFCLTSKGESLHSAIATWHEKARGKAVIDYGFHLMVSDANDHVLEELESVVNNEGITSLKVFMAYKNVLMADDETLFKTLIRAKELGALVQVHAENGDVLDYLTKQALAEGNTDPIYHAYTRPPEAEGEATGRAIALTALADAQLYVVHVSCADAVRRIAEAREKGWNVYGETCPQYLVLDITALEKPDFEGAKYVWSPPLREKWNQDVLWSALKNGILQTVGSDHCPFNFSGQKELGRRDFTKIPNGGPIIEDRMTILFSEGVRKGKISLNQFVDITSTKVAKLFGMFPQKGTIAVGSDADIVLFDPTVQRTISVETHHMNVDYNPFEGMQVHGDVISVLSRGAFVVRNKQFVGHAGAGRYVKRSTFARP
Consider B1, for which the “Enzyme activity” value with D-hydantoinase [5] (pH 4.0) is “loses its entire activity”. The Highest specific activity in the data set with D-hydantoinase [5] (pH 8.5) was determined as 3.36 unit/mg; in the data set on D-hydantoinase [6] (60° C.), 28.32 unit/mg. Further, the Specific activity in the data set with D-hydantoinase [6] (30° C.) is 9.0 unit/mg; with D-hydantoinase [6] (90° C.), 4.26 unit/mg. The “Activity after long incubation” value in the data set on D-hydantoinase [7] is reported as “retains activity”. For the same molecule, the “Maximum specific activity for catalysis of D,L-p-HPH” value in the data set with D-hydantoinase [8] is recorded as 47 unit/mg.
